Data on 25 compounds can be found in patent US12516039B2, “N-linked isoquinoline amides as LRRK2 inhibitors, pharmaceutical compositions, and uses thereof” (Merck Sharp & Dohme LLC, priority 2020, dated 2026).

This experiment addresses T1, GST-tagged truncated human mutant G2019S LRRK2 (Homo sapiens, UniProt Q5S007, G2019S).
T1 construct: GST-tagged truncated human mutant G2019S LRRK2; purchased Life Technologies Corporation (Carlsbad, CA)
As to the kind of experiment: LRRK2 G2019S Km ATP LanthaScreen assay. Format: biochemical. Conditions: 134 μM ATP (Km ATP), LRRKtide substrate, mean of several tests; for IC50: read-out: LRRK2 pIC50 (converted). How it is done:
Unless otherwise noted, all reactions are magnetically stirred. Unless otherwise noted, when diethyl ether is used in the experiments described below, it is Fisher ACS certified material and is stabilized with BHT. Unless otherwise noted, “concentrated” and/or “solvent removed under reduced pressure” means evaporating the solvent from a solution or mixture using a rotary evaporator or vacuum pump. Unless otherwise noted, flash chromatography is carried out on a Teledyne Isco (Lincoln, NE), Analogix (Burlington, WI), or Biotage (Stockholm, SWE) automated chromatography system using a commercially available cartridge as the column. Columns may be purchased from Teledyne Isco, Analogix, Biotage, Varian (Palo Alto, CA), or Supelco (Bellefonte, PA) and are usually filled with silica gel as the stationary phase. Reverse phase prep-HPLC conditions, where used, can be found at the end of each experimental section. Aqueous solutions were concentrated on a Genevac (Ipswich, ENG) or by freeze-drying/lyophilization. Unless otherwise noted, all LRRK2 pIC50 data presented in tables refers to the LRRK2 G2019S Km ATP LanthaScreen™ assay (Life Technologies Corp., Carlsbad, CA) that is described in the Biological Assay section.
Biological Assay: LRRK2 Km ATP LanthaScreen™ Assay
The LRRK2 kinase activity reported herein as IC50 values was determined with LanthaScreen™ technology from Life Technologies Corporation (Carlsbad, CA) using GST-tagged truncated human mutant G2019S LRRK2 in the presence of the fluorescein-labeled peptide substrate LRRKtide, also from Life Technologies. The data presented for the Km ATP LanthaScreen™ Assay represents mean IC50 values based on several test results and may have reasonable deviations depending on the specific conditions and reagents used. Assays were performed in the presence of 134 μM ATP (Km ATP). Upon completion, the assay was stopped and phosphorylated substrate detected with a terbium (Tb)-labeled anti-pERM antibody (cat. no. PV4898). The compound dose response was prepared by diluting a 10 mM stock of compound to a maximum concentration of 9.99 μM in 100% dimethylsulfoxide followed by custom fold serial dilution in dimethylsulfoxide nine times. Twenty nanoliters of each dilution was spotted via a Labcyte Echo onto a 384-well black-sided plate (Corning 3575) followed by 15 μl of a 1.25 nM enzyme solution in 1× assay buffer (50 mM Tris pH 8.5, 10 mM MgCl2, 0.01% Brij-35, 1 mM EGTA, 2 mM dithiothreitol, 0.05 mM sodium orthovanadate). Following a 15-minute incubation at room temperature, the kinase reaction was started with the addition of 5 μl of 400 nM fluorescein-labeled LRRKtide peptide substrate and 134 μM ATP solution in 1× assay buffer. The reaction was allowed to progress at ambient temperature for 90 minutes. The reaction was then stopped by the addition of 20 μl of TR-FRET Dilution Buffer (Life Technologies, Carlsbad, CA) containing 2 nM Tb-labeled anti-phospho LRRKtide antibody and 10 mM EDTA (Life Technologies, Carlsbad, CA). After an incubation of 1 hour at room temperature, the plate was read on an EnVision multimode plate reader (Perkin Elmer, Waltham, MA) with an excitation wavelength of 337 nm (Laser) and a reading emission at both 520 and 495 nm. Compound IC50s were interpolated from nonlinear regression best fits of the log of the final compound concentration, plotted as a function of the 520/495-nm emission ratio using Activity base. Abase uses a 4 parameter (4P) logistic fit based on the Levenberg-Marquardt algorithm.

T1 sequence (Q5S007 970-2527 G2019S limits assumed): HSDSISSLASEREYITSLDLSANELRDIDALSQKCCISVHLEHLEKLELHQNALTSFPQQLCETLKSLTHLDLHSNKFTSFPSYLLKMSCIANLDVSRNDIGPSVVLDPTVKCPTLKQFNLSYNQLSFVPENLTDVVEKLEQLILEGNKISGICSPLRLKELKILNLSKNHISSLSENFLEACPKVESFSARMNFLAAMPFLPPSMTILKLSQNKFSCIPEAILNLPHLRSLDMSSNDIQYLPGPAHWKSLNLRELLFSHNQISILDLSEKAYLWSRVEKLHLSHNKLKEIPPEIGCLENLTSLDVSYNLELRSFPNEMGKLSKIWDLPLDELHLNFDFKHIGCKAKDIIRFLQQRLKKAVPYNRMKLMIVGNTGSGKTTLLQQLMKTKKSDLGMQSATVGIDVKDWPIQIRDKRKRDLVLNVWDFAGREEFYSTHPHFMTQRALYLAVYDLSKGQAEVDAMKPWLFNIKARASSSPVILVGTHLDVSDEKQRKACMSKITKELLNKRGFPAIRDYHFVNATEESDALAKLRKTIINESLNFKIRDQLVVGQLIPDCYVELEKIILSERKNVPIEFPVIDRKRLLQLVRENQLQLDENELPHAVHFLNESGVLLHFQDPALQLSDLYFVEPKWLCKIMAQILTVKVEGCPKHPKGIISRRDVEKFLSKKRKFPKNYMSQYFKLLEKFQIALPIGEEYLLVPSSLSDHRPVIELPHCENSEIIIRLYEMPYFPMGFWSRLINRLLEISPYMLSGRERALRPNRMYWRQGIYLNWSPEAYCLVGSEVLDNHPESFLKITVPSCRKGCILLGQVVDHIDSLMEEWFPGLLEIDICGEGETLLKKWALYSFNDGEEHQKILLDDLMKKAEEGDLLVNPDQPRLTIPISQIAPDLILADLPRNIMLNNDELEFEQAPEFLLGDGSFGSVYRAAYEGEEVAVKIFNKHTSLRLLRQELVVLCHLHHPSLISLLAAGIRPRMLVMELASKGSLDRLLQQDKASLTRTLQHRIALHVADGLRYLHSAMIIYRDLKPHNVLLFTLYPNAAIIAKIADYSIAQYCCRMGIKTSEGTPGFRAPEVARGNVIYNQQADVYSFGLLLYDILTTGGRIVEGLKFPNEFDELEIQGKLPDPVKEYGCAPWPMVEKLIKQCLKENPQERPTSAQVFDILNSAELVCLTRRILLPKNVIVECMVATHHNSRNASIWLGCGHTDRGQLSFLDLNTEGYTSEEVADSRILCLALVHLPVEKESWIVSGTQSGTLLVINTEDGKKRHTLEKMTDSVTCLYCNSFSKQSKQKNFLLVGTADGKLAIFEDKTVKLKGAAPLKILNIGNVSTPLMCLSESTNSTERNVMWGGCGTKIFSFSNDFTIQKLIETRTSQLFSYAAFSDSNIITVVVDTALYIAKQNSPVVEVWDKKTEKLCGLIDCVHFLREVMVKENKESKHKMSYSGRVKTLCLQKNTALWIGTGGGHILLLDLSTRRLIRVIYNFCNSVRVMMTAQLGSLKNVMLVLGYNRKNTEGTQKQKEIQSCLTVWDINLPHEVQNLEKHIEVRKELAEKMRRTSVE

As to `CC1(N2CCN(c3cc4cc(NC(=O)C5CC56CCOCC6)ncc4cc3Cl)CC2)CCOC1` (single isomer, unassigned) [Ex-5.13], the IC50 was 83.2 nM.
On to `C[C@]1(O)COC[C@@]1(C)N1CCN(c2cc3cc(NC(=O)[C@@H]4CC45CCOCC5)ncc3cc2Cl)CC1` (single isomer, unassigned) [Ex-17.1, (R) or (S)-N-(7-chloro-6-((3R,4R) or (3S,4S)-4-(4-hydroxy-3,4-dimethyltetrahydrofuran-3-yl)piperazin-1-yl)isoquinolin-3-yl)-6-oxaspiro[2.5]octane-1-carboxamide], for which the IC50 is 0.0813 nM.
`CC1(N2CCN(c3cc4cc(NC(=O)C5CC5c5ccco5)ncc4cc3Cl)CC2)COCC1O` (single isomer, unassigned) [Ex-10.29, (1R,2R or 1S,2S)-N-[7-chloro-6-[4-((3R,4R or 3S,4S)-4-hydroxy-3-methyl-tetrahydrofuran-3-yl)piperazin-1-yl]-3-isoquinolyl]-2-(2-furyl)cyclopropanecarboxamide]: the IC50 was 0.275 nM.
In the case of `Cc1cc2cnc(NC(=O)C3C4CCOCC43)cc2cc1N1CCN(C2(C)CCOC2)CC1` (single isomer, unassigned) [Ex-10.46, (1S,6R,7R, 1R,6S,7R, or 1R, 6S,7S, or 1S,6S,7S)-N-(7-methyl-6-(4-((R or S)-3-methyltetrahydrofuran-3-yl)piperazin-1-yl)isoquinolin-3-yl)-3-oxabicyclo[4.1.0]heptane-7-carboxamide], the IC50 is 0.457 nM.
As to `COC1COCC1N1CCN(c2cc3cc(NC(=O)C4CC45CCOCC5)ncc3cc2Cl)CC1` (single isomer, unassigned) [Ex-5.9], the IC50 is 1510 nM.
For `COC1COCC1N1CCN(c2cc3cc(NC(=O)C4CC45CCOCC5)ncc3cc2Cl)CC1` (single isomer, unassigned) [Ex-5.10], the IC50 is 38 nM.
As for `CC1(N2CCN(c3cc4cc(NC(=O)C5CCCO5)ncc4cc3Cl)CC2)COCC1O` (stereo not shown) [Ex-9.4], the “LRRK2 pIC50” value is reported as 8.40.
On the same count and under the same terms, to `CC1(N2CCN(c3cc4cc(NC(=O)C5CC56CC6)ncc4cc3Cl)CC2)COC1` (stereo not shown) [Ex-4.4] belongs 7.85; to `CC1(O)CC2(CN(c3cc4cc(NC(=O)C5CC5)ncc4cc3Cl)C2)C1` [Ex-4.5], 7.72.
On to `CCC1C(C(=O)Nc2cc3cc(N4CCN(C5(C)CCOC5)CC4)c(C)cc3cn2)C1c1cnn(C)c1` (single isomer, unassigned) [Ex-10.37, (1R,2R,3R, 1R,2S,3R, 1S,2R,3S, or 1S,2S,3S)-2-ethyl-N-[7-methyl-6-[4-((R or S)-3-methyltetrahydrofuran-3-yl)piperazin-4-ium-1-yl]-3-isoquinolyl]-3-(1-methylpyrazol-4-yl)cyclopropanecarboxamide], for which the IC50 was 0.0813 nM.
Turning to `O=C(Nc1cc2cc(N3C(=O)C4CCC3C4)ccc2cn1)C1CC1` (single isomer, unassigned) [Ex-5.2], the IC50 was 25.7 nM.
With `CC1C(C(=O)Nc2cc3cc(N4CCN(C5(C)CCOC5)CC4)c(Cl)cc3cn2)C1c1cnn(C)c1` (stereo not shown) [Ex-9.6], the IC50 is 1 nM.
Take `CC1(N2CCN(c3cc4cc(NC(=O)C56CC(C5)C6)ncc4cc3Cl)CC2)COCC1O` (single isomer, unassigned) [Ex-2.19, N-(7-chloro-6-(4-((3R,4R or 3S,4S)-4-hydroxy-3-methyltetrahydrofuran-3-yl)piperazin-1-yl)isoquinolin-3-yl)bicyclo[1.1.1]pentane-1-carboxamide]: the IC50 was 2.88 nM.
On the same count and under the same terms, under `CC1(N2CCN(c3cc4cc(NC(=O)C5CC56CCC(F)(F)CC6)ncc4cc3Cl)CC2)COCC1O` (single isomer, unassigned) [Ex-1.20, (1R or 1S)-N-(7-chloro-6-(4-((3R,4R or 3S,4S)-4-hydroxy-3-methyltetrahydrofuran-3-yl)piperazin-1-yl)isoquinolin-3-yl)-6,6-difluorospiro[2.5]octane-1-carboxamide] stands 63.1 nM; under `Cc1cc2cnc(NC(=O)C3CCOC(C)(C)C3)cc2cc1N1CCN(C2(C)CCOC2)CC1` (single isomer, unassigned) [Ex-10.43, (4R or 4S)-2,2-dimethyl-N-[7-methyl-6-[4-((R or S)-3-methyltetrahydrofuran-3-yl)piperazin-1-yl]-3-isoquinolyl]tetrahydropyran-4-carboxamide], 19.5 nM.
Consider `Cc1cc2cnc(NC(=O)C3CC34CCOCC4)cc2cc1N1CCN(C2(C)COCC2O)CC1` (single isomer, unassigned) [Ex-6.1], for which the IC50 is 0.355 nM.
On to `C[C@H]1CN(c2cc3cc(NC(=O)C4CC45CCOCC5)ncc3cc2Cl)CCN1C1COCC1O` (single isomer, unassigned) [Ex-2.3, (R or S)-N-{7-chloro-6-[(3S or 3R)-4-(3R,4R or 3S,4S)-4-hydroxyoxolan-3-yl)-3-methylpiperazin-1-yl]isoquinolin-3-yl}-6-oxaspiro[2.5]octane-1-carboxamide], for which the IC50 was 17.4 nM.
As to `CC(C)(O)C1CC1C(=O)Nc1cc2cc(N3CCN(C4(C)COCC4O)CC3)c(Cl)cc2cn1` (single isomer, unassigned) [Ex-10.5], the IC50 is 4.79 nM.
On to `CC1(C#N)CCN(c2cc3cc(NC(=O)C4CC45CCOCC5)ncc3cc2Cl)CC1` (stereo not shown) [Ex-4.8], for which the “LRRK2 pIC50” value is 6.68.
Consider `Cc1cc2cnc(NC(=O)C3CC3c3ccccn3)cc2cc1N1CCN(C2(C)CCOC2)CC1` (single isomer, unassigned) [Ex-9.16], for which the IC50 is 1.12 nM.
Turning to `Cc1cc2cnc(NC(=O)C3CC34CCOC4)cc2cc1N1CCN(C2(C)COCC2O)CC1` (single isomer, unassigned) [Ex-6.5, (1R, 3S or 1S,3R, or 1R,3S, or 1S,3S)-N-(6-(4-((3R, 4R or 3S,4S)-4-hydroxy-3-methyltetrahydrofuran-3-yl)piperazin-1-yl)-7-methylisoquinolin-3-yl)-5-oxaspiro[2.4]heptane-1-carboxamide], the IC50 is 1.05 nM.
For `CC1C(C(=O)Nc2cc3cc(N4CCN(C5(C)CCOC5)CC4)c(Cl)cc3cn2)C1c1cnn(C)c1` (single isomer, unassigned) [Ex-9.7], the IC50 was 0.0813 nM.
As for `CCC1C(C(=O)Nc2cc3cc(N4CCN(C5(C)COCC5O)CC4)c(Cl)cc3cn2)C1c1ccn(C)n1` (single isomer, unassigned) [Ex-10.65, (1R,2R,3R, or 1R,2S,3R, or 1S,2R,3S, or 1S,2S,3S)-N-[7-chloro-6-[4-( (3R,4R or 3S,4S)-4-hydroxy-3-methyl-tetrahydrofuran-3-yl)piperazin-1-yl]-3-isoquinolyl]-2-ethyl-3-(1-methylpyrazol-3-yl)cyclopropanecarboxamide], the IC50 is 0.0813 nM.
Turning to `O=C(Nc1cc2cc(N3CCN(C4COCC4O)CC3)c(Cl)cc2cn1)C1CC1` (single isomer, unassigned) [Ex-1.4, (3R,4R or 3S,4S)-N-(7-chloro-6-(4-(4-hydroxytetrahydrofuran-3-yl)piperazin-1-yl)isoquinolin-3-yl)cyclopropanecarboxamide], the IC50 is 57.5 nM.
In the case of `CC1(N2CCN(c3cc4cc(NC(=O)C5CCC5c5ccccn5)ncc4cc3Cl)CC2)COCC1O` (single isomer, unassigned) [Ex-11.5, (1R,2R or 1S,2S)-N-(7-chloro-6-(4-((3R,4R or 3S,4S)-4-hydroxy-3-methyltetrahydrofuran-3-yl)piperazin-1-yl)isoquinolin-3-yl)-2-(pyridin-2-yl)cyclobutane-1-carboxamide], the IC50 was 0.0813 nM.
